In assay [1] the test system is Staphylococcus aureus. Description: Antibacterial activity against Staphylococcus aureus ATCC 29213 assessed as inhibition of bacterial growth measured after 24 hrs incubation. It is filed as functional.
Assay [2] deals with Staphylococcus aureus. The assay can be described thus: Potency index, ratio of norfloxacin MIC to test compound MIC for antibacterial activity against Staphylococcus aureus assessed as inhibition of bacterial growth measured after 24 hrs incubation. It is filed as functional.
The subject of assay [3] is Staphylococcus aureus. The assay can be described thus: Potency index, ratio of norfloxacin MIC to test compound MIC for antibacterial activity against Staphylococcus aureus ATCC 25923 assessed as inhibition of bacterial growth measured after 24 hrs incubation. It is filed as functional.
The test system of assay [4] is Staphylococcus aureus. Description: Potency index, ratio of norfloxacin MIC to test compound MIC for antibacterial activity against Staphylococcus aureus ATCC 29213 assessed as inhibition of bacterial growth measured after 24 hrs incubation. It is filed as functional.
For assay [5], the system named is Staphylococcus aureus. The assay can be described thus: Antibacterial activity against methicillin-resistant Staphylococcus aureus N315 assessed as resistance development measured after 18 generations. It is filed as functional, organism-based.
Assay [6] has as its system Escherichia coli. Description: Antibacterial activity against Escherichia coli assessed as resistance development measured after 18 generations. It is filed as functional, organism-based.
Assay [7] deals with Staphylococcus aureus. The assay can be described thus: Antibacterial activity against methicillin-resistant Staphylococcus aureus N315 assessed as resistance development measured after 10 generations. Format: functional, organism-based.
Assay [8] has as its system Staphylococcus aureus. Description: Antibacterial activity against methicillin-resistant Staphylococcus aureus N315 assessed as reduction in bacterial burden at 2 to 4 times of MIC measured within 5 hrs by time-dependent kinetics assay. Format: functional, organism-based.
Assay [9] deals with Escherichia coli. The assay can be described thus: Antibacterial activity against Escherichia coli assessed as reduction in bacterial burden at 2 to 4 times of MIC measured within 5 hrs by time-dependent kinetics assay. Format: functional, organism-based.
For the next assay, the system named is Cell membrane. Description: Induction of cytoplasmic membrane integrity loss in methicillin-resistant Staphylococcus aureus N315 assessed as increase in fluorescence intensity at 0.5 to 6 times of MIC by Propidium iodide method. Format: cell membranes.
In assay [10] the test system is Staphylococcus aureus. The assay can be described thus: Induction of lipid peroxidation in methicillin-resistant Staphylococcus aureus N315 assessed as malondialdehyde (MDA) level production at 4 time of MIC. It is filed as functional, organism-based.
The subject of assay [11] is Staphylococcus aureus. The assay can be described thus: Induction of ROS production in methicillin-resistant Staphylococcus aureus N315 assessed as fluorescence intensity at 2 times of MIC by DCFH-DA (dichlorofluorescin diacetate) probe based assay.

Values after ≈ are worked out from the molar mass of the structure shown. Active and inactive are the calls of the source. The calls are words filed in the database; no cut-off is given here. Where only a bound is given, the exact number is not on record here.

What is called MIC is the least concentration at which growth counts as inhibited.

As to `CCOC(=O)Cn1cc(/C=C(\C#N)C(=O)N2CCN(c3cc4c(cc3F)c(=O)c(C(=O)O)cn4CC)CC2)c2ccccc21`, in the assay on Staphylococcus aureus [1], the MIC was determined as 0.25 µg/mL (≈ 0.417 µM). Besides, the Ratio in the assay on Staphylococcus aureus [2], in the assay on Staphylococcus aureus [3] and with Staphylococcus aureus [4] was 1 in each case. Also, the result in the assay with Staphylococcus aureus [5], with Escherichia coli [6], in the assay on Staphylococcus aureus [8], in the assay on Escherichia coli [9], with Cell membrane and with Staphylococcus aureus [10] was Active. Also, in the assay with Staphylococcus aureus [7], the result was inactive. The Activity with Staphylococcus aureus [11] is listed as greater than 50%.

These data come from ChEMBL document CHEMBL5512655, “Discovery of indolylacryloyl-derived oxacins as novel potential broad-spectrum antibacterial candidates” (Eur J Med Chem, 2024).
